Results published in ChEMBL document CHEMBL3046014, “Quinolone derivatives as antitubercular drugs” (Med Chem Res, 2013).
Values after ≈ are worked out from the molar mass of the structure shown.

How the values were obtained:
Mycobacterium avium = experiment: Antitubercular activity against Mycobacterium avium by MAC assay; format: functional
[1] = system: Mycobacterium tuberculosis; experiment: Antitubercular activity against Mycobacterium tuberculosis; format: functional, organism-based
[2] = system: Mycobacterium tuberculosis; experiment: Antitubercular activity against Mycobacterium tuberculosis H37Rv; format: functional
[3] = Elimination half life in healthy Homo sapiens (human); format: ADME, organism-based; conditions: in vivo, read-out: beta t1/2 (converted)
Homo sapiens = species on record: Homo sapiens; experiment: Toxicity in healthy Homo sapiens (human); format: organism-based; conditions: in vivo
[4] = Oral bioavailability in healthy Homo sapiens (human); format: ADME, organism-based; conditions: in vivo
[5] = Drug uptake in Mus musculus (mouse) serum at 100 mg/kg, po at 0.25 hr; format: ADME, organism-based; set-up: dose 100 mg/kg, route oral; conditions: read-out: Drug uptake
[6] = system: Mycobacterium tuberculosis; experiment: Antitubercular activity against Mycobacterium tuberculosis CSU93

Q: With `OC(C1=CCC=CN1)c1cc(C2C3CC4CC(C3)CC2C4)nc2c1ccc1ccccc12` (stereo not drawn) as the compound, how does the MIC50 (Mycobacterium avium) read?
A: The MIC50 was 2 µg/mL (≈ 4.73 µM).

Q: Which IC50 [1] does the source give for `C[C@H]1CN(c2c(F)cc3c(=O)c(C(=O)O)cn(C4CC4)c3c2OC(F)(F)F)CCN1.Cl` here?
A: The IC50 was 0.25 µg/mL.

Q: For `OC(C1=CCC=CN1)c1cc(-c2ccc(Cl)cc2)nc2c1ccc1ccccc12` (stereo not drawn), which MIC50 (Mycobacterium avium) is on record?
A: Its MIC50 is 1 µg/mL (≈ 2.51 µM).

Q: For `CC1COc2c(N3CCN(C)CC3)c(F)cc3c(=O)c(C(=O)O)cn1c23` (racemic) [OFLOXACIN], which IC50 [1] is on record?
A: The IC50 was 0.5 µg/mL (≈ 1.38 µM).

Q: Which IC50 [1] does the source give for `CNC1CCCN(c2c(F)cc3c(=O)c(C(=O)O)cn(C4CC4)c3c2OC)C1` (stereo not drawn) [BALOFLOXACIN] here?
A: The IC50 was 0.5 µg/mL (≈ 1.28 µM).

Q: With `COc1nc2ccc(Br)cc2cc1[C@@H](c1ccccc1)[C@@](O)(CCN(C)C)c1cccc2ccccc12` [BEDAQUILINE] as the compound, how does the MIC [2] read?
A: The MIC was under 0.5 µg/mL.

Q: With `O=C(O)c1cn(C2CC2)c2cc(N3CCNCC3)c(F)cc2c1=O` [CIPROFLOXACIN] as the compound, how does the IC50 [1] read?
A: The IC50 was 0.5 µg/mL (≈ 1.51 µM).

Q: For `C[C@H]1NCc2cc(-c3ccc4c(=O)c(C(=O)O)cn(C5CC5)c4c3OC(F)F)ccc21` [GARENOXACIN], which MIC90 [1] is on record?
A: The MIC90 was 0.0625 µg/mL (≈ 0.147 µM).

Q: For `CO/N=C1\CN(c2nc3c(cc2F)c(=O)c(C(=O)O)cn3C2CC2)CC1CN` (stereo not drawn) [GEMIFLOXACIN], which half-life [3] is on record?
A: The half-life was 7.4 h.

Q: What about the MNTD (Homo sapiens) of the same compound?
A: The MNTD was 800 mg.

Q: What about the bioavailability [4] of the same compound?
A: Its bioavailability is 70%.

Q: And the MIC90 [1]?
A: Its MIC90 is 8 µg/mL (≈ 20.5 µM).

Q: For `Cc1c(F)c(N2CCNC(C)C2)cc2c1c(=O)c(C(=O)O)cn2C1CC1` (stereo not drawn) [GREPAFLOXACIN], which MIC90 [1] is on record?
A: The MIC90 was 1 µg/mL (≈ 2.78 µM).

Q: With `C[C@H]1COc2c(N3CCN(C)CC3)c(F)cc3c(=O)c(C(=O)O)cn1c23.C[C@H]1COc2c(N3CCN(C)CC3)c(F)cc3c(=O)c(C(=O)O)cn1c23.O` [LEVOFLOXACIN] as the compound, how does the MIC90 [1] read?
A: The MIC90 was 1 µg/mL.

Q: Which MIC50 (Mycobacterium avium) does the source give for `OC(c1cc(C(F)(F)F)nc2c(C(F)(F)F)cccc12)C1CCCCN1` (stereo not drawn) [MEFLOQUINE] here?
A: The MIC50 was 16 µg/mL (≈ 42.3 µM).

Q: For `COc1c(N2C[C@@H]3CCCN[C@@H]3C2)c(F)cc2c(=O)c(C(=O)O)cn(C3CC3)c12` [MOXIFLOXACIN], which concentration at 0.25 h [5] is on record?
A: Its concentration at 0.25 h is 7800 ng/mL.

Q: And the MIC [6]?
A: The MIC was 0.25 µg/mL (≈ 0.623 µM).

Q: Which IC50 [1] does the source give for `CCn1cc(C(=O)O)c(=O)c2cc(F)c(N3CCNCC3)cc21` [NORFLOXACIN] here?
A: Its IC50 is 8 µg/mL (≈ 25.1 µM).

Q: For `N[C@@H]1CN(c2c(F)cc3c(=O)c(C(=O)O)cn([C@@H]4C[C@@H]4F)c3c2Cl)CC12CC2` [SITAFLOXACIN ANHYDROUS], which half-life [3] is on record?
A: The half-life was 4.4 h.

Q: And the bioavailability [4]?
A: The bioavailability was at least 70%.

Q: And the MIC90 [1]?
A: Its MIC90 is 0.2 µg/mL (≈ 0.488 µM).

Q: With `C[C@@H]1CN(c2c(F)c(N)c3c(=O)c(C(=O)O)cn(C4CC4)c3c2F)C[C@H](C)N1` [SPARFLOXACIN] as the compound, how does the IC50 [1] read?
A: The IC50 was 0.25 µg/mL (≈ 0.637 µM).

Q: Which MIC90 [1] does the source give for `N[C@@H]1[C@H]2CN(c3nc4c(cc3F)c(=O)c(C(=O)O)cn4-c3ccc(F)cc3F)C[C@@H]12` [TROVAFLOXACIN] here?
A: The MIC90 was 1 µg/mL (≈ 2.4 µM).
